Experimental data taken from publication doi:10.1101/2021.04.08.439011v1 (biorxiv, 2021).

Assays:
Test in all cases: biochemical
Conditions in all cases: read-out: Residual activity
TTBK1 = TTBK1 (Homo sapiens, UniProt Q5TCY1)
STK33 = STK33 (Homo sapiens, UniProt Q9BYT3)
LTK = LTK (Homo sapiens, UniProt P29376)
DYRK1B = DYRK1B (Homo sapiens, UniProt Q9Y463)
Chain of DYRK1B (Q9Y463 whole entry): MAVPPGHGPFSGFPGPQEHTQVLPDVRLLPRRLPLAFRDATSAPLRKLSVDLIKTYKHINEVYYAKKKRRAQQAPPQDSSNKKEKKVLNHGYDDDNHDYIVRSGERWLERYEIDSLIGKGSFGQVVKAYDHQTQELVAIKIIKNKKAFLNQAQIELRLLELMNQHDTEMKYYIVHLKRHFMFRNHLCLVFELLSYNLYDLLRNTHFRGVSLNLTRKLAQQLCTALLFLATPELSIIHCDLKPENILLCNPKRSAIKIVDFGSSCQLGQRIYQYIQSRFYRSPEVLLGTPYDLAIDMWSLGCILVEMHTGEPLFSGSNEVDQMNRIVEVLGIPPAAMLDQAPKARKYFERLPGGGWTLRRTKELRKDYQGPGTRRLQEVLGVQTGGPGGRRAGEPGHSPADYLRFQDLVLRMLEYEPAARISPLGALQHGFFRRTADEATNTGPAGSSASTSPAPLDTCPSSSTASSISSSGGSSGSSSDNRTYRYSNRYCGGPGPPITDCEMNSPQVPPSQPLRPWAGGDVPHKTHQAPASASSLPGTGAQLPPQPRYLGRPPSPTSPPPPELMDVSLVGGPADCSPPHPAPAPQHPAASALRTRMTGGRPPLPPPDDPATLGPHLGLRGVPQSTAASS

Chain of TTBK1 (Q5TCY1 whole entry): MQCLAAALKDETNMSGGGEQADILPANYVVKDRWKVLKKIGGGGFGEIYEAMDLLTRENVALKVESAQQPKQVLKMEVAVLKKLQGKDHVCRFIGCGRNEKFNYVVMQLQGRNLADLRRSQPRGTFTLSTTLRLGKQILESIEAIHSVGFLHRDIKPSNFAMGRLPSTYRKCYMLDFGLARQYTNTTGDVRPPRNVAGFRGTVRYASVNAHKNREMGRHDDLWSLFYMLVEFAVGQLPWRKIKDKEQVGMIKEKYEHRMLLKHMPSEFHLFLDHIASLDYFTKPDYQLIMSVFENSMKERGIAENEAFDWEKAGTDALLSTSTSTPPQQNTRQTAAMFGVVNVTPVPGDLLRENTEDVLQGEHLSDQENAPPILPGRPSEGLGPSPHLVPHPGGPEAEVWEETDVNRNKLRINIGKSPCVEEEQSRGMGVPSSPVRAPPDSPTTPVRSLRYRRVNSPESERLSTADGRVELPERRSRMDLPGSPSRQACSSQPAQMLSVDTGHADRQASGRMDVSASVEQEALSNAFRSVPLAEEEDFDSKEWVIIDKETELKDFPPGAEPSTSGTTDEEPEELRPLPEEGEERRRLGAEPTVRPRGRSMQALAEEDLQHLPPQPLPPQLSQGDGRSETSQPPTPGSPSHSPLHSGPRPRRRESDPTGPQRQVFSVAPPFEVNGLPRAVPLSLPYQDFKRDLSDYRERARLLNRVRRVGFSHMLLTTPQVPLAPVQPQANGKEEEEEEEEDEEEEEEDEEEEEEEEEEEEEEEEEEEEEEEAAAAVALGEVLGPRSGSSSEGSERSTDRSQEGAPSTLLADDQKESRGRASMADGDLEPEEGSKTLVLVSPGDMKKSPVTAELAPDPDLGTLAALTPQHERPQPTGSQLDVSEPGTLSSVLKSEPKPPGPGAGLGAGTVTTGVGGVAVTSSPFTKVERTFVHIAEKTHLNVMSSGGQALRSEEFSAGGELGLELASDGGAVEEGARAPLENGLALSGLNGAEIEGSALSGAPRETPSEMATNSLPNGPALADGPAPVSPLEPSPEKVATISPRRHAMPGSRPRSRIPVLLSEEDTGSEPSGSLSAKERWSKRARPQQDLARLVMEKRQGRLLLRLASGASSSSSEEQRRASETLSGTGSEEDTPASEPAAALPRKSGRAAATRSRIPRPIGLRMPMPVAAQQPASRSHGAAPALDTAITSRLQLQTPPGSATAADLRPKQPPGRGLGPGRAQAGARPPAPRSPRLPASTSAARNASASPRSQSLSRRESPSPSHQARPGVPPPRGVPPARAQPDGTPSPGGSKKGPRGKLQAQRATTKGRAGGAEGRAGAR
Chain of LTK (P29376 whole entry): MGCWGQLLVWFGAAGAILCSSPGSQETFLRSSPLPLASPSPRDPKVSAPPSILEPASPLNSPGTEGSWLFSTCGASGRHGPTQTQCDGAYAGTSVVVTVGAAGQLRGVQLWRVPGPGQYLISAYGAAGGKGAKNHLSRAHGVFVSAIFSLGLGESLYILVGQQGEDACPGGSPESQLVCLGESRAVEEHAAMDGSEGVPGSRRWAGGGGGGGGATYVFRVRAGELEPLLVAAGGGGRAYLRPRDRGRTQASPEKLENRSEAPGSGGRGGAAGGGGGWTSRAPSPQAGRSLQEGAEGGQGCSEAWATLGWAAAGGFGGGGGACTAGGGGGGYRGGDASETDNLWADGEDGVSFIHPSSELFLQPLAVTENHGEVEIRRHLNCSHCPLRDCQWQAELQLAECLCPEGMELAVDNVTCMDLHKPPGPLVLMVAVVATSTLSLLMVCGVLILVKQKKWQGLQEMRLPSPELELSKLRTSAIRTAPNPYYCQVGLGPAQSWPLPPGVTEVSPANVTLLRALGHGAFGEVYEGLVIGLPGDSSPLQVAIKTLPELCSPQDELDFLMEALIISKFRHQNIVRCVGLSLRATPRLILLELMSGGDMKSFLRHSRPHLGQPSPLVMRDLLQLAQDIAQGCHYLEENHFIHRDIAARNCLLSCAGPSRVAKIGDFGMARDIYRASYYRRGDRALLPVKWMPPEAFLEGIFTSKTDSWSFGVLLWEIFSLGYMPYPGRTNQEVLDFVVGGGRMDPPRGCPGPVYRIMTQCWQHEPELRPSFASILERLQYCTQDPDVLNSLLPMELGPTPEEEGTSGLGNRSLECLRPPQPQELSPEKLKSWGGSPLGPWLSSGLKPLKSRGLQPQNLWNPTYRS
Chain of STK33 (Q9BYT3 whole entry): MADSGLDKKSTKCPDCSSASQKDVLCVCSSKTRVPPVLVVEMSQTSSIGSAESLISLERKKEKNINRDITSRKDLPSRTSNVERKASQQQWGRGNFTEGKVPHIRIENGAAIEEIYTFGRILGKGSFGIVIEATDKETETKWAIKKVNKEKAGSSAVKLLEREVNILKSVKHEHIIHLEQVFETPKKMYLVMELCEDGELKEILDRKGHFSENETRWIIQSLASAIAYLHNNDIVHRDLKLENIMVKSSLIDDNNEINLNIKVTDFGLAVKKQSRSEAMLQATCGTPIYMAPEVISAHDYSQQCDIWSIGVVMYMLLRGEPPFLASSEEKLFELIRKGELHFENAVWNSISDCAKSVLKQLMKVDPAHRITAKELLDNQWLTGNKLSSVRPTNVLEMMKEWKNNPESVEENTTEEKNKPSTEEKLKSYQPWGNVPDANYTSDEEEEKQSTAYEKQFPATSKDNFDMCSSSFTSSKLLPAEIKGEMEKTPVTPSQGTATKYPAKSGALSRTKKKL

**Q.** Which remaining activity at 1 µM (TTBK1) does the source give for `CNc1ncc2cc(-c3ccc(-c4ncccc4F)cc3Cl)c(=O)n(CC3OCC(N)CO3)c2n1` (stereo not shown) [compound 10, 8-(((2r,5r)-5-Amino-1,3-dioxan-2-yl)methyl)-6-(2-chloro-4-(3-fluoropyridin-2-yl)phenyl)-2-(methylamino)pyrido[2,3-d]pyrimidin-7(8H)-one] here?
**A.** 131%

**Q.** And the remaining activity at 1 µM (STK33)?
**A.** 89%

**Q.** And the remaining activity at 1 µM (LTK)?
**A.** 105%

**Q.** And the remaining activity at 1 µM (DYRK1B)?
**A.** 98%
